In patent US12077503B2, “Substituted cyclic amides and their use as herbicides” (FMC CORPORATION, priority 2015, dated 2024):
Where two headings read alike, the source gives them in different places.

Columns and labels:
Assay type in all cases: in vivo
Kochia (Kochia scoparia) = experiment: Test A preemergence; details: Bassia scoparia, pre-emergence, 240 h, preemergence, read-out: Plant response rating, Kochia
Method in brief: (§1)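 Visual injury, scored on a 0–100 scale relative to untreated controls, was recorded about 10 d after application. Treatments were a preemergence soil spray over planted seeds or a postemergence spray on plants at the one- to two-leaf stage, 2 to 10 cm tall, all in loam soil–sand blend in the greenhouse.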

[1] = tested on: barnyardgrass (Echinochloa crus-galli); experiment: Test A preemergence; details: Echinochloa crus-galli, pre-emergence, 240 h, read-out: Plant response rating, Barnyardgrass; for pest or weed control at 125 g/ha: 125 g ai/ha; for pest or weed control at 500 g/ha: 500 g ai/ha
Method in brief: as §1

[2] = tested on: giant foxtail (Setaria faberii); experiment: Test A preemergence; details: Setaria faberi, pre-emergence, 240 h, read-out: Plant response rating, Foxtail, Giant; for pest or weed control at 125 g/ha: 125 g ai/ha; for pest or weed control at 500 g/ha: 500 g ai/ha
Method in brief: as §1

[3] = tested on: pigweed (Amaranthus retroflexus); experiment: Test A preemergence; details: Amaranthus retroflexus, pre-emergence, 240 h, read-out: Plant response rating, Pigweed; for pest or weed control at 125 g/ha: 125 g ai/ha; for pest or weed control at 500 g/ha: 500 g ai/ha
[4] = tested on: ragweed (common ragweed, Ambrosia elatior); experiment: Test A preemergence; details: Ambrosia artemisiifolia, pre-emergence, 240 h, preemergence, read-out: Plant response rating, Ragweed
Method in brief: as §1

[5] = tested on: ryegrass, Italian (Italian ryegrass, Lolium multiflorum); experiment: Test A preemergence; details: Lolium multiflorum, pre-emergence, 240 h, 125 g ai/ha, preemergence; visual rating after approx. 10 d; 0 to 100 scale where 0 is no effect and 100 is complete control; read-out: Plant response rating, Ryegrass, Italian
Method in brief: as §1

[6] = tested on: barnyardgrass (Echinochloa crus-galli); experiment: Test A postemergence; details: Echinochloa crus-galli, post-emergence, 240 h; for pest or weed control at 125 g/ha: 125 g ai/ha; for pest or weed control at 500 g/ha: 500 g ai/ha, visual injury, approx. 10 d
Method in brief: as §1

[7] = tested on: blackgrass (Alopecurus myosuroides); experiment: Test A postemergence; details: Alopecurus myosuroides, post-emergence, 240 h, 125 g ai/ha, postemergence; visual injury after approximately 10 d; 0 to 100 scale (0 no effect, 100 complete control); read-out: Plant response rating, Blackgrass
Method in brief: as §1

[8] = tested on: giant foxtail (Setaria faberii); experiment: Test A postemergence; details: Setaria faberi, post-emergence, 240 h; for pest or weed control at 125 g/ha: 125 g ai/ha; for pest or weed control at 500 g/ha: 500 g ai/ha, visual injury, approx. 10 d
Method in brief: as §1

[9] = tested on: ragweed (common ragweed, Ambrosia elatior); experiment: Test A postemergence; details: Ambrosia artemisiifolia, post-emergence, 240 h, 125 g ai/ha, postemergence; visual injury after approximately 10 d; 0 to 100 scale (0 no effect, 100 complete control); read-out: Plant response rating, Ragweed
Method in brief: as §1

[10] = tested on: barnyardgrass (Echinochloa crus-galli); experiment: Test B flooded paddy test; details: Echinochloa crus-galli, Flood, 250 g ai/ha; scale of 0 to 100 where 0 is no effect and 100 is complete control; read-out: Barnyardgrass plant response rating
Method in brief: (§2)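 Response scored visually against untreated controls, 0 = no effect and 100 = complete control, 13–15 d after treatment in the greenhouse. Compounds added to paddy water held 3 cm above soil surface. Treatment given at 2-leaf stage.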

[11] = tested on: ducksalad (Heteranthera limosa); experiment: Test B flooded paddy test; details: Heteranthera limosa, Flood, 250 g ai/ha; scale of 0 to 100 where 0 is no effect and 100 is complete control; read-out: Ducksalad plant response rating
Method in brief: as §2

rice (Oryra sativa) = experiment: Test B flooded paddy test; details: Oryza sativa, Flood, 250 g ai/ha; scale of 0 to 100 where 0 is no effect and 100 is complete control; read-out: Rice plant response rating
Method in brief: as §2

[12] = tested on: sedge, umbrella (small-flower umbrella sedge, Cyperus difformis); experiment: Test B flooded paddy test; details: Cyperus difformis, Flood, 250 g ai/ha; scale of 0 to 100 where 0 is no effect and 100 is complete control; read-out: Sedge, Umbrella plant response rating
Method in brief: as §2

[13] = 125 g ai/ha, visual rating after approx. 10 d, 0 to 100 scale where 0 is no effect and 100 is complete control
[14] = 500 g ai/ha, 0 to 100 scale, 0 = no effect, 100 = complete control
[15] = preemergence, visual rating after approx. 10 d, 0 to 100 scale where 0 is no effect and 100 is complete control
[16] = preemergence, 0 to 100 scale, 0 = no effect, 100 = complete control
[17] = preemergence, 0 to 100 scale (0 no effect, 100 complete control)
[18] = Preemergence, 0 to 100 scale (0 no effect, 100 complete control)
[19] = Postemergence, visual rating about 10 d after treatment, read-out: Barnyardgrass plant response rating (0 to 100 scale, 0 no effect, 100 complete control)
[20] = Postemergence, 0 to 100 scale (0 no effect, 100 complete control), read-out: Plant response rating, Barnyardgrass
[21] = Postemergence, visual rating about 10 d after treatment, read-out: Foxtail, Giant plant response rating (0 to 100 scale)
[22] = Postemergence, 0 to 100 scale (0 no effect, 100 complete control), read-out: Plant response rating, Foxtail, Giant

SMILES | pest or weed control at 500 g/ha [1, 17] [%] | pest or weed control at 125 g/ha [1, 18] [%] | pest or weed control at 500 g/ha [2, 17] [%] | pest or weed control at 125 g/ha [2, 18] [%] | pest or weed control at 500 g/ha [3, 17] [%] | pest or weed control at 125 g/ha [3, 18] [%] | pest or weed control at 125 g/ha [6, 19] [%] | pest or weed control at 500 g/ha [6, 20] [%] | pest or weed control at 125 g/ha [8, 21] [%] | pest or weed control at 500 g/ha [8, 22] [%] | further results
CN1CC(c2cccc(OC/C=C/Cl)c2)C(C(=O)Nc2cccc(F)c2F)C1=O (stereo not drawn) [Compound 772] | – | – | – | – | – | – | – | – | – | – | pest or weed control at 125 g/ha (Kochia (Kochia scoparia); [13]): 0%; pest or weed control at 500 g/ha (Kochia (Kochia scoparia); [14]): 30%; pest or weed control at 125 g/ha [1, 15]: 0%; pest or weed control at 500 g/ha [1, 16]: 40%; pest or weed control at 125 g/ha [2, 15]: 50%; pest or weed control at 500 g/ha [2, 16]: 90%; pest or weed control at 125 g/ha [3, 15]: 0%; pest or weed control at 500 g/ha [3, 16]: 0%; pest or weed control at 125 g/ha [4, 13]: 0%; pest or weed control at 500 g/ha [4, 14]: 0%; pest or weed control at 125 g/ha [5]: 0%; pest or weed control at 125 g/ha ([6]; postemergence, visual injury after approximately 10 d, 0 to 100 scale (0 no effect, 100 complete control), read-out: Plant response rating, Barnyardgrass): 0%; pest or weed control at 125 g/ha [7]: 0%; pest or weed control at 125 g/ha ([8]; postemergence, visual injury after approximately 10 d, 0 to 100 scale (0 no effect, 100 complete control), read-out: Plant response rating, Foxtail, Giant): 30%; pest or weed control at 125 g/ha [9]: 0%; pest or weed control at 250 g/ha [10]: 0%; pest or weed control at 250 g/ha [11]: 75%; pest or weed control at 250 g/ha (rice (Oryra sativa)): 0%; pest or weed control at 250 g/ha [12]: 0%
O=C1NCC(c2ccccc2)C1C(=O)Nc1cc(F)ccc1F (stereo not drawn) [Compound 1359] | 0 | 0 | 0 | 0 | 0 | 0 | 0 | 0 | 0 | 0 | –
O=C1NCC(c2ccccc2)C1C(=O)Nc1ccc(C(F)(F)F)cc1 (stereo not drawn) [Compound 1362] | 0 | 0 | 0 | 0 | 0 | 0 | 0 | 0 | 0 | 0 | –
